{
  "source": "paper PMC11596610",
  "about": "(Molecules, 2024)",
  "key": {"[1]": {"assay": "Cytotoxicity assay with the rat L6 cell line (resazurin)", "format": "cell-based", "procedure": "Cultures were maintained at 37 °C in an atmosphere of 5% CO2. […] Plates were incubated at 37 °C under a 5% CO2 atmosphere for 24 h. After that, compounds were dissolved in DMSO (10 mM or 10 mg/mL), serial drug dilutions of eleven 3-fold dilution steps covering a range from 100 to 0.002 μg/mL or 100 to 0.002 µM were prepared, and the plates incubated at 37 °C under 5% CO2 for 70 h. […] The results were expressed as percentage of the untreated controls. Fifty percent inhibitory concentrations (IC50) were estimated by linear interpolation."}, "[2]": {"test_system": "S. mansoni newly transformed schistosomula (NTS)", "assay": "Drug assay against S. mansoni NTS", "format": "cell-based, Schistosoma mansoni", "details": "for IC50: Schistosoma mansoni", "text": "Harvested S. mansoni cercariae (Liberian strain) obtained from infected Biomphalaria glabrata snails were mechanically transformed into newly transformed schistosomula (NTS) following standard procedures as described. Artesunate and praziquantel were previously tested in the drug assay against S. mansoni NTS [39]. […] Culture medium was composed of M199 medium (Gibco, Waltham MA, USA) supplemented with 5% Horse Serum (Gibco, Waltham MA, USA), 1% penicillin/streptomycin mixture (Invitrogen, Carlsbad, CA, USA, 100 U/mL) and 1% Mäser Mix. Each compound was tested in triplicate. NTS incubated with no more than 1% DMSO served as control. NTS were kept in the incubator at 37 °C and 5% CO2 for up to 72 h. After 24, 48 and 72 h, the condition of the NTS was microscopically evaluated."}, "S. mansoni adult worms": {"test_system": "S. mansoni adult worms", "assay": "Drug assay against ex vivo S. mansoni adult worms", "format": "cell-based, Schistosoma mansoni", "details": "for IC50: Schistosoma mansoni", "procedure": "Female NMRI mice (age 3 weeks, weight ca. 14–20 g) were purchased from Charles River (Sulzfeld, Germany). […] To obtain adult schistosomes, NMRI mice were infected subcutaneously with 80 to 100 cercariae. After 49 days, the mice were euthanized with CO2 and the worms collected from the hepatic portal and mesenteric veins. […] Each compound was tested in duplicate. Artesunate and praziquantel were previously tested in the drug assay against S. mansoni adult worms. Schistosomes incubation with no more than 1% DMSO served as control. Worms were kept in an incubator at 37 °C and 5% CO2 for up to 72 h. After 24, 48 and 72 h, the condition of the worms was microscopically evaluated and scored as described above."}, "[3]": {"test_system": "P. falciparum strain NF54", "assay": "[3H]-hypoxanthine incorporation assay, antiplasmodial activity", "format": "cell-based", "details": "Plasmodium falciparum", "procedure": "Compounds were dissolved in DMSO at 10 mM, serial dilutions prepared in hypoxanthine-free culture medium (7-step dilution series; 2-fold serial dilutions) and 100 μL aliquots were dispensed in duplicates into 96-well cell culture plates. […] After incubation for 48 h, 0.25 μCi of [^3H]-hypoxanthine was added per well and plates were incubated for an additional 24 h. Parasites were harvested onto glass-fiber filters using a Microbeta FilterMate cell harvester (Perkin Elmer, Waltham, MA, USA) and radioactivity was counted using a MicroBeta2 liquid scintillation counter (Perkin Elmer, Waltham, MA, USA)."}, "S. mansoni": {"test_system": "S. mansoni", "assay": "Drug assay in vivo in S. mansoni-infected mice", "parameters": "species or system mice (NMRI)", "details": "single oral dose 200 mg/kg", "procedure": "The in vivo study was carried out in accordance with Swiss national and cantonal regulations on animal welfare under the permission number 545. Female mice (NMRI strain; 3-week-old; weight ca. 20–22 g) were purchased from Charles River, Germany. Rodents were kept under environmentally controlled conditions (temperature ~25 °C; humidity ~70%; 12 h light, 12 h dark cycle) with free access to water and rodent diet, and acclimatized for one week before infection. […]. Untreated mice (n = 4) served as controls in all experiments. Two weeks post-treatment mice were dissected and all worms counted. Worm burden reductions were calculated."}, "[4]": {"details": "P. falciparum NF54, 3H-hypoxanthine incorporation, mean of 2 independent determinations, read-out: NF54 IC50"}},
  "note": "Read-outs that look alike come from different tables or passages of the source.",
  "data": [
    {"smiles": "COc1cc([C@@H]2c3cc4c(cc3[C@H](O)[C@H]3COC(=O)[C@H]23)OCO4)cc(OC)c1OC", "note": "[Podophyllotoxin, podophyllotoxin, reference compound]", "values": [
      {"measurement": "CC50 at 70 h", "setting": "[1]; rat L6 cells, 70 h incubation, resazurin, read-out: L6 CC50", "result": 0.01, "unit": "µM"}
    ]},
    {"smiles": "CC1=C(Cc2ccc(C(F)(F)F)cc2)C(=O)C2=CC=CCC2(C)C1=O", "note": "(racemic) [Product 2, (±)-3,4a-dimethyl-2-(4-(trifluoromethyl)benzyl)-4a,5-dihydronaphthalene-1,4-dione]", "values": [
      {"measurement": "IC50", "setting": "[2]; 24 h", "result": 17400, "unit": "nM"},
      {"measurement": "IC50", "setting": "[2]; 48 h", "result": 8500, "unit": "nM"},
      {"measurement": "IC50", "setting": "[2]; 72 h", "result": 1700, "unit": "nM"},
      {"measurement": "Effect in % ± SD", "setting": "[2]; test conc. 1 µM, 24 h", "result": "20.75 ± 0", "unit": "%"},
      {"measurement": "Effect in % ± SD", "setting": "[2]; test conc. 1 µM, 48 h", "result": "32.08 ± 0", "unit": "%"},
      {"measurement": "Effect in % ± SD", "setting": "[2]; test conc. 1 µM, 72 h", "result": "36.73 ± 2", "unit": "%"},
      {"measurement": "Effect in % ± SD", "setting": "[2]; test conc. 10 µM, 24 h", "result": "34.52 ± 6.2", "unit": "%"},
      {"measurement": "Effect in % ± SD", "setting": "[2]; test conc. 10 µM, 48 h", "result": "51.43 ± 8.6", "unit": "%"},
      {"measurement": "Effect in % ± SD", "setting": "[2]; test conc. 10 µM, 72 h", "result": "86.79 ± 1.9", "unit": "%"},
      {"measurement": "IC50", "setting": "S. mansoni adult worms; 24 h", "result": 22.7, "unit": "µM"},
      {"measurement": "IC50", "setting": "S. mansoni adult worms; 48 h", "result": 17.3, "unit": "µM"},
      {"measurement": "IC50", "setting": "S. mansoni adult worms; 72 h", "result": 15.2, "unit": "µM"},
      {"measurement": "Effect in % ± SD", "setting": "S. mansoni adult worms; test conc. 10 µM, 24 h", "result": "42.75 ± 1", "unit": "%"},
      {"measurement": "Effect in % ± SD", "setting": "S. mansoni adult worms; test conc. 10 µM, 48 h", "result": "48.05 ± 2.9", "unit": "%"},
      {"measurement": "Effect in % ± SD", "setting": "S. mansoni adult worms; test conc. 10 µM, 72 h", "result": "50 ± 0", "unit": "%"},
      {"measurement": "Effect in % ± SD", "setting": "S. mansoni adult worms; test conc. 25 µM, 24 h", "result": "44.4 ± 0", "unit": "%"},
      {"measurement": "Effect in % ± SD", "setting": "S. mansoni adult worms; test conc. 25 µM, 48 h", "result": "49.05 ± 0.9", "unit": "%"},
      {"measurement": "Effect in % ± SD", "setting": "S. mansoni adult worms; test conc. 25 µM, 72 h", "result": "51.9 ± 0", "unit": "%"},
      {"measurement": "CC50 at 70 h", "setting": "[1]; rat", "result": 25.6, "unit": "µM"},
      {"measurement": "IC50", "setting": "[3]; [4]", "result": "2390 ± 825", "unit": "nM"}
    ]},
    {"smiles": "CCN(CC)CCCC(C)Nc1ccnc2cc(Cl)ccc12", "note": "(stereo not shown) [CQ diphosphate, Chloroquine diphosphate, reference compound]", "values": [
      {"measurement": "IC50", "setting": "[3]; NF54, read-out: NF54 IC50", "result": 4, "unit": "ng/mL"}
    ]},
    {"smiles": "CC1=C(Cc2ccc(C(F)(F)F)cc2)C(=O)C2(C)CC=CC=C2C1=O", "note": "(racemic) [Product 1, (±)-2,4a-dimethyl-3-(4-(trifluoromethyl)benzyl)-4a,5-dihydronaphthalene-1,4-dione]", "values": [
      {"measurement": "Total WBR (worm burden reduction)", "setting": "S. mansoni", "result": 15.7, "unit": "%"},
      {"measurement": "Cures", "setting": "S. mansoni; cured/treated", "result": "0/4"},
      {"measurement": "Mean Number of Worms (SD) Females", "setting": "S. mansoni; two weeks post-treatment", "result": "10.8 (1.0)"},
      {"measurement": "Mean Number of Worms (SD) Liver", "setting": "S. mansoni; two weeks post-treatment", "result": 0},
      {"measurement": "Mean Number of Worms (SD) Mesenteric Veins", "setting": "S. mansoni; two weeks post-treatment", "result": "21.5 (1.9)"},
      {"measurement": "Mean Number of Worms (SD) Total", "setting": "S. mansoni; two weeks post-treatment", "result": "21.5 (1.9)"},
      {"measurement": "IC50", "setting": "[2]; 24 h", "result": 2700, "unit": "nM"},
      {"measurement": "IC50", "setting": "[2]; 48 h", "result": 2400, "unit": "nM"},
      {"measurement": "IC50", "setting": "[2]; 72 h", "result": 2000, "unit": "nM"},
      {"measurement": "Effect in % ± SD", "setting": "[2]; test conc. 1 µM, 24 h", "result": "18.87 ± 1.9", "unit": "%"},
      {"measurement": "Effect in % ± SD", "setting": "[2]; test conc. 1 µM, 48 h", "result": "26.42 ± 1.9", "unit": "%"},
      {"measurement": "Effect in % ± SD", "setting": "[2]; test conc. 1 µM, 72 h", "result": "28.57 ± 2", "unit": "%"},
      {"measurement": "Effect in % ± SD", "setting": "[2]; test conc. 10 µM, 24 h", "result": "34.59 ± 1.3", "unit": "%"},
      {"measurement": "Effect in % ± SD", "setting": "[2]; test conc. 10 µM, 48 h", "result": "35.35 ± 0.7", "unit": "%"},
      {"measurement": "Effect in % ± SD", "setting": "[2]; test conc. 10 µM, 72 h", "result": "71.70 ± 9.4", "unit": "%"},
      {"measurement": "Effect in % ± SD", "setting": "[2]; test conc. 25 µM, 24 h", "result": "100 ± 0", "unit": "%"},
      {"measurement": "Effect in % ± SD", "setting": "[2]; test conc. 25 µM, 48 h", "result": "100 ± 0", "unit": "%"},
      {"measurement": "Effect in % ± SD", "setting": "[2]; test conc. 25 µM, 72 h", "result": "100 ± 0", "unit": "%"},
      {"measurement": "IC50", "setting": "S. mansoni adult worms; 24 h", "result": 0.8, "unit": "µM"},
      {"measurement": "IC50", "setting": "S. mansoni adult worms; 48 h", "result": 0.2, "unit": "µM"},
      {"measurement": "IC50", "setting": "S. mansoni adult worms; 72 h", "result": 0.6, "unit": "µM"},
      {"measurement": "Effect in % ± SD", "setting": "S. mansoni adult worms; test conc. 1 µM, 24 h", "result": "53.3 ± 0", "unit": "%"},
      {"measurement": "Effect in % ± SD", "setting": "S. mansoni adult worms; test conc. 1 µM, 48 h", "result": "58.3 ± 0", "unit": "%"},
      {"measurement": "Effect in % ± SD", "setting": "S. mansoni adult worms; test conc. 1 µM, 72 h", "result": "59.15 ± 0.8", "unit": "%"},
      {"measurement": "Effect in % ± SD", "setting": "S. mansoni adult worms; test conc. 10 µM, 24 h", "result": "53.7 ± 0.9", "unit": "%"},
      {"measurement": "Effect in % ± SD", "setting": "S. mansoni adult worms; test conc. 10 µM, 48 h", "result": "65.65 ± 3.1", "unit": "%"},
      {"measurement": "Effect in % ± SD", "setting": "S. mansoni adult worms; test conc. 10 µM, 72 h", "result": "66.7 ± 2.1", "unit": "%"},
      {"measurement": "Effect in % ± SD", "setting": "S. mansoni adult worms; test conc. 25 µM, 24 h", "result": "70.4 ± 3.7", "unit": "%"},
      {"measurement": "Effect in % ± SD", "setting": "S. mansoni adult worms; test conc. 25 µM, 48 h", "result": "73.15 ± 2.8", "unit": "%"},
      {"measurement": "Effect in % ± SD", "setting": "S. mansoni adult worms; test conc. 25 µM, 72 h", "result": "88.9 ± 0", "unit": "%"},
      {"measurement": "CC50 at 70 h", "setting": "[1]; rat", "result": 22.5, "unit": "µM"},
      {"measurement": "IC50", "setting": "[3]; [4]", "result": "1850 ± 458", "unit": "nM"}
    ]},
    {"smiles": "C[C@H]1[C@H](OC(=O)CCC(=O)O)O[C@@H]2O[C@@]3(C)CC[C@H]4[C@H](C)CC[C@@H]1[C@@]24OO3", "note": "[artesunate, reference compound]", "values": [
      {"measurement": "IC50", "setting": "[3]; P. falciparum NF54, reference compounds, values printed in ng/mL, read-out: NF54 IC50", "result": 1.52, "unit": "ng/mL"}
    ]}
  ]
}
